Reference: article PMC4721142, “Randomized controlled studies on the efficacy of antiarthritic agents in inhibiting cartilage degeneration and pain associated with progression of osteoarthritis in the rat” (Arthritis Research & Therapy, 2016)
Several values for one entry are separate records, joined by “and”; a condition that tells them apart may be missing. Identical values can stand only once.

Assays:
HeLa cells = assay: HeLa cell viability (CellTiter-Glo)
How it was run: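 HeLa cells with and without drug were tested for viability by CellTiter-Glo luminescence as a toxicity read-out. In the companion NF-κB reporter assay, cells co-transfected with NF-κB firefly and Renilla luciferase plasmids (8:1) were read by Dual-Glo 5 h later, normalized to viable cells and expressed as fold over unstimulated, untreated cells.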

MMT/MCLT rat model of OA = assay: MMT/MCLT trial 1 histopathology (same doses); format: in vivo; design: key to Tibial cartilage degeneration score, 3-zone total: sum of three tibial zone scores (each on 5-point scale); key to Total joint score w/o femur / Total joint score / Total joint score without femur: sum: cartilage degeneration scores + mean osteophyte score; conditions: low or only dose
Source text: For MMT/MCLT rat knee joints, sections were cut in 200-μm steps; stained with toluidine blue (also with a right and left half per section); and similarly analyzed for cartilage degeneration, proteoglycan loss, collagen damage, and osteophyte formation. Results were averaged across the three sections for an overall semiquantitative score. Regional differences across the tibial plateau were taken into consideration by dividing each section into three zones delineated using an ocular micrometer (outside, middle, and inside). Scores were based on the percentage of area affected within the zone.
Cartilage degeneration in the tibia was scored on a 5-point scale as detailed in the Methods section of Additional file 1. The total extent of degeneration of the tibial plateau was measured (in micrometers) and included an analysis of cell loss, proteoglycan loss, and collagen damage. Significant cartilage degeneration reflecting any degeneration extending through more than 50 % of the cartilage thickness was also measured. Collagen damage across the medial tibial plateau (the most severely affected section of the two halves) was also quantified.
Osteophytes and femoral cartilage degeneration were analyzed as detailed in Additional file 1. Scoring of the osteophytes and categorization into small, medium, and large was performed using an ocular micrometer. The actual osteophyte measurement (tidemark to farthest distance point extending toward the synovium) was also recorded. The femoral cartilage degeneration score and the three-zone sum of the tibial cartilage degeneration scores (mean of three levels) were summed to create a total cartilage degeneration score. The mean osteophyte score for each joint was added to this value to create a total joint score. […]
Histopathology MMT/MCLT Model

Compound: CC1=C(CO)C(=O)O[C@@H]([C@@H](C)[C@H]2CC[C@H]3[C@@H]4C[C@H]5O[C@]56[C@@H](O)C=CC(=O)[C@]6(C)[C@H]4CC[C@]23C)C1 [Withaferin A]
- Non-toxic concentrations (HeLa cells): 0 to 17 M
- Bone score (MMT/MCLT rat model of OA; mean): 2.88
- Depth ratio any matrix change, mean (MMT/MCLT rat model of OA; mean): 0.38
- Depth ratio any matrix change, zone 2 (MMT/MCLT rat model of OA; mean): 0.18
- Femoral cartilage degeneration score (MMT/MCLT rat model of OA; mean): 1.83 and 1.83 ± 0.52
- Tibial cartilage degeneration score, 3-zone total (MMT/MCLT rat model of OA; mean): 6.04
- Tibial cartilage degeneration score, zone 1 (MMT/MCLT rat model of OA; mean): 4.13
- Tibial cartilage degeneration score, zone 2 (MMT/MCLT rat model of OA; mean): 1.88
- Tibial cartilage degeneration score, zone 3 (MMT/MCLT rat model of OA; mean): 0.04
- Tibial cartilage degeneration width, significant (MMT/MCLT rat model of OA; mean): 637.50 µm
- Tibial cartilage degeneration width, total (MMT/MCLT rat model of OA; mean): 1262.50 µm
- Tibial osteophyte measure (MMT/MCLT rat model of OA; mean): 515.42 µm
- Tibial osteophyte score (MMT/MCLT rat model of OA; mean): 3.96
- Total joint score (MMT/MCLT rat model of OA; mean): 11.83 and 11.83 ± 0.61
- Total joint score w/o femur (MMT/MCLT rat model of OA; mean): 10.00
- % decrease, bone score (MMT/MCLT rat model of OA; vs saline group): 12%
- % decrease, depth ratio mean (MMT/MCLT rat model of OA; vs saline group): -5%
- % decrease, depth ratio zone 2 (MMT/MCLT rat model of OA; vs saline group): 0%
- % decrease, femoral cartilage degeneration score (MMT/MCLT rat model of OA; vs saline group): 0%
- % decrease, osteophyte measure (MMT/MCLT rat model of OA; vs saline group): 0%
- % decrease, osteophyte score (MMT/MCLT rat model of OA; vs saline group): -1%
- % decrease, significant degeneration width (MMT/MCLT rat model of OA; vs saline group): 12%
- % decrease, tibial score 3-zone total (MMT/MCLT rat model of OA; vs saline group): 8%
- % decrease, tibial score zone 1 (MMT/MCLT rat model of OA; vs saline group): 4%
- % decrease, tibial score zone 2 (MMT/MCLT rat model of OA; vs saline group): 15%
- % decrease, tibial score zone 3 (MMT/MCLT rat model of OA; vs saline group): 0%
- % decrease, total degeneration width (MMT/MCLT rat model of OA; vs saline group): 4%
- % decrease, total joint score (MMT/MCLT rat model of OA; vs saline group): 4%
- % decrease, total joint score w/o femur (MMT/MCLT rat model of OA; vs saline group): 4%
